Entries after “also recorded” stand apart in the source; their conditions may differ.
Assays:
MeWo cells = test: ceramide levels in MeWo human melanoma cells; assay type: cell-based; details: 25 μM
Protocol: Specifically, FIG. 1 evidences the effects of compound of Example 7 or vehicle (0.1% DMSO in DMEM) on AC activity and ceramide levels in A375 (left panel) or MeWo (right panel) human melanoma cell lines. (A-B) Intact cells were treated with compound of Example 7 (25 μM) or vehicle and AC activity was measured 30 minutes or 3 hours later in cell lysates. (B) Intact cells were exposed to compound of Example 7 (25 μM) for 2 hours or 24 hours and medium chain ceramides (C-D), long chain ceramides (E-F) and dihydroceramides (G-H) were quantified. Results are expressed as mean±s.e.m. (n=3). *p<0.05, **p<0.01, ***p<0.001 vs vehicle, two-way ANOVA followed by Dunnet.
Lipids were extracted from mouse tissue lysate with a chloroform/MeOH mixture (2:1 v/v, 3 mL) containing internal standards. The organic phase was collected, dried under nitrogen, and dissolved in chloroform/MeOH (1:3 v/v) for LC-MS analyses. Ceramides, sphingosine and sphinganine were analyzed by LC-MS/MS, using a Waters Acquity UPLC coupled with a Waters Xevo TQMS and interfaced with ESI. Separation was done on a Waters Acquity BEH C18 1.7 μm column (2.1×50 mm) at 60° C. A step gradient of 0.1% formic acid in acetonitrile/water (20:80 v/v) as solvent A and 0.1 formic acid in acetonitrile/isopropyl alcohol (20:80 v/v) as solvent B was applied at a flow rate of 0.4 mL/min. Detection was in the positive ionization mode. Capillary voltage was 3.5 kV and cone voltage was 25 V. The source temperature and desolvation temperatures were set at 120° C. and 600° C. respectively. […]
Tissue-derived ceramides were identified by comparison of their LC retention times and MS^2 fragmentation patterns with those of authentic standards (Avanti Polar Lipids). Extracted ion chromatograms were used to quantify myristoyl ceramide (C14:0, m/z 510.5>492.5>264.3), palmitoyl ceramide (C16:0, m/z 538.5>520.3>264.3), stearoyl ceramide (C18:0 m/z 566.5>548.3>264.3), lignoceroyl ceramide (C24:0 m/z 650.5>632.3>264.3), nervonoyl ceramide (C24:1 m/z 648.5>630.3>264.3) and using lauroyl ceramide standard (m/z 482.5>464.5>264.3). […]

[1] = test system: MAG-hydrolyzing enzymes including MGL, HSL and EL; test: MAG-hydrolysing activity ex vivo in mice; design: species or system mouse; details: 10 mg-kg^−1 intraperitoneal, 3 h after injection
Protocol: Compound of Example 25 was also tested for its ability to inhibit the hydrolytic degradation of diacylglycerols (DAG) and monoacylglycerols (MAG) in live mice. DAG and MAG hydrolysis is catalyzed by multiple serine lipases, including diacylglycerol lipase (DGL), monoacylglycerol lipase (MGL), hormone-sensitive lipase (HSL), and endothelial lipase. Thus, by monitoring the effects of compound of Example 25 on MAG-hydrolysing activity as well as DAG and MAG levels ex vivo, we can gain important insights as to the ability of the compound to interfere with those lipases in a physiologically relevant setting.
Specifically FIG. 8 evidences the effect of Example 25 or vehicle (DMSO) on MGL activity in brain, liver, fat and heart. MAG-hydrolysing activity was measured 3 h after intraperitoneal injection of compound of Example 25 (10 mg-kg-1). Results are expressed as mean±s.e.m. (n=5).
Tissue was homogenized in ice-cold Tris-HCl (50 mM, pH7.5, 10 vol) containing sucrose (0.32 M). Homogenates were centrifuged at 1,000×g for 10 min, and the supernatants (5 μg of protein) were incubated at 37° C. for 30 min in Tris.HCl (50 mM, pH 7.5, 0.5 mL) containing 10 μM oleoylglycerol (Sigma-Aldrich, St. Louis, Mo.). […] The residues were suspended in 100 μL of chloroform/methanol (1:3, v:v) and analyzed by LC-MS.

| SMILES | duration of effects on ceramide levels (MeWo cells; MeWo cells (high AC expression)) | di-hydro ceramide species levels (MeWo cells; MeWo cells) | ceramide species levels (cer(d18:1/14:0), cer(d18:1/16:0), cer(d18:1/18:0), cer(d18:1/24:1)) (MeWo cells; MeWo cells, LC/MS) | MAG-hydrolysing activity in brain, liver, fat and heart [1] |
| --- | --- | --- | --- | --- |
| O=C(NCCCCc1ccccc1)n1c(=O)oc2cc(Br)ccc21 [Example 7, 6-Bromo-2-oxo-N-(4-phenylbutyl)-1,3-benzoxazole-3-carboxamide] | recovered the initial phenotype after 24 hours | significant increase in all di-hydro ceramide species analyzed | intracellular accumulation of various ceramide species |  |
| O=C(NCCCCc1ccccc1)n1c(=O)oc2cc(-c3ccc(F)cc3)ccc21 [Example 25, 6-(4-Fluorophenyl)-2-oxo-N-(4-phenylbutyl)-1,3-benzoxazole-3-carboxamide] |  |  |  | did not cause inhibition of MAG-hydrolysing activity; also recorded: no inhibitory activity |

— patent publication US10226452B2, “Benzoxazolone derivatives as acid ceramidase inhibitors, and their use as medicaments” (FONDAZIONE ISTITUTO ITALIANO DI TECNOLOGIA, priority 2014, dated 2019)
